From EPA's ToxValDB 9.5

Test system: Mus musculus
[1] = developmental, duration: 54 days, oral, gavage, M/F, CD1, generation: F1, F1: Developmental: Eye: Eye Opening + F1: Developmental: Liver: Liver, Discolored + F1: Developmental: Whole Body: Fetus Or Pup/Neonate, …
[2] = reproduction developmental, duration: 14 days, oral, gavage, F, Crl:CD-1 (ICR) BR, generation: P0, P0: Blood: Hematocrit (HCT) + P0: Blood: Hemoglobin (HGB) + P0: Blood: Lymphocyte + P0: Blood: Monocytes + P0: Blood: Neutrophils + P0: …
[3] = reproduction developmental, duration: 14 days, oral, gavage, F, Crl:CD-1 (ICR) BR, generation: P0, P0: Liver: Hepatocellular Hypertrophy
[4] = reproduction developmental, duration: 14 days, oral, gavage, M/F, Crl:CD-1 (ICR) BR, generation: P0, P0: Eye: Eye Opening + P0: Whole Body: Lactation Index + P0: Whole Body: Pup Mortality + P0: Whole Body: Pup Weight Relative to Litter
[5] = reproduction developmental, duration: 54 days, oral, gavage, F, CD1, generation: P0, P0: Developmental: Uterus: Implantation + P0: Developmental: Whole Body: No. Male Pups per No. of Pups Sexed
[6] = reproduction developmental, duration: 54 days, oral, gavage, F, CD1, generation: P0, P0: Developmental: Uterus: Implantation + P0: Developmental: Whole Body: No. Male Pups per No. of Pups Sexed + P0: Reproductive: Whole Body…
[7] = reproduction developmental, duration: 109 days, oral, gavage, M, Crl:CD-1 (ICR) BR, generation: P0, P0: Blood: Hematocrit (HCT) + P0: Blood: Hemoglobin (HGB) + P0: Blood: Sorbitol Dehydrogenase (SDH), Blood + P0: Kidney: Blood Urea Nitrogen…
[8] = reproduction developmental, duration: 109 days, oral, gavage, M, Crl:CD-1 (ICR) BR, generation: P0, P0: Hepatic: Liver: Alanine Aminotransferase (ALT), Blood + P0: Hepatic: Liver: Alkaline Phosphatase (ALP), Blood + P0: Hepatic: Liver: …
[9] = reproduction developmental, duration: 109 days, oral, gavage, M, Crl:CD-1 (ICR) BR, generation: P0, P0: Liver: Hepatocellular Hypertrophy
[10] = reproduction developmental, multiple, M, Crl:CD-1 (ICR) BR, generation: F1, F1: Reproductive: Prepuce: Preputial Separation + F1: Whole Body: Whole Body: Body Weight Change + F1: Whole Body: Whole Body: Feed …
[11] = reproduction developmental, multiple, M, Crl:CD-1 (ICR) BR, generation: F1, F1: Whole Body: Whole Body: Body Weight Change + F1: Whole Body: Whole Body: Feed Consumption, Absolute
[12] = reproduction developmental, oral, gavage, F, CD1, generation: P0, P0: Blood: Hematocrit (HCT) + P0: Blood: Hemoglobin (HGB) + P0: Blood: Lymphocyte + P0: Blood: Monocytes + P0: Blood: Neutrophils + P0: …
[13] = reproduction developmental, oral, gavage, F, CD1, generation: P0, P0: Liver: Alanine Aminotransferase (ALT), Blood + P0: Liver: Alkaline Phosphatase (ALP), Blood + P0: Liver: Aspartate Aminotransferase (AST…
[14] = reproduction developmental, oral, gavage, F, Crl:CD-1 (ICR) BR, generation: P0, P0: Hepatic: Liver: Alanine Aminotransferase (ALT), Blood + P0: Hepatic: Liver: Alkaline Phosphatase (ALP), Blood + P0: Hepatic: Liver: …
[15] = reproduction developmental, oral, gavage, M, CD1, generation: P0, P0: Blood: Cholesterol (CHOL), Total + P0: Blood: Hematocrit (HCT) + P0: Blood: Hemoglobin (HGB) + P0: Blood: Lymphocyte + P0: Blood: …

- NEL (developmental, oral, gavage, M/F, CD1, generation: F1, F1: Eye: Eye Opening + F1: Liver: Liver, Discolored + F1: Prepuce or Vagina: Preputial Separation or Vaginal Patency + F1: Whole Body: Fetus…): 25 mg/kg-day
- LEL (developmental, oral, gavage, M/F, CD1, generation: F1, F1: Eye: Eye Opening + F1: Liver: Liver, Discolored + F1: Whole Body: Fetus Or Pup/Neonate, Small + F1: Whole Body: Lactation Index + F1: …): 100 mg/kg-day
- LEL [2]: 100 mg/kg-day
- NEL [2]: 25 mg/kg-day
- NEL (reproduction developmental, duration: 14 days, oral, gavage, F, Crl:CD-1 (ICR) BR, generation: P0, P0: Kidney: Kidney Weight, Absolute + P0: Liver: Liver Weight, Absolute + P0: Liver: Total Bilirubin (TBILI), Blood + P0: Liver: Total …): 100 mg/kg-day
- LEL [7]: 100 mg/kg-day
- NEL [7]: 25 mg/kg-day
- NEL (reproduction developmental, duration: 109 days, oral, gavage, M, Crl:CD-1 (ICR) BR, generation: P0, P0: Blood: Lymphocyte + P0: Blood: Monocytes + P0: Blood: Neutrophils + P0: Blood: Red Blood Cell (RBC) + P0: Blood: Reticulocytes + P0: …): 100 mg/kg-day
- NEL (reproduction developmental, oral, gavage, F, CD1, generation: P0, P0: Blood: Calcium (CA), Blood + P0: Blood: Chloride (CL), Blood + P0: Blood: Globulin (G), Blood + P0: Blood: Glucose (GLU), Blood + P0: …): 100 mg/kg-day
- LEL [12]: 100 mg/kg-day
- NEL [12]: 25 mg/kg-day
- NEL (reproduction developmental, oral, gavage, F, CD1, generation: P0, P0: Uterus: Implantation + P0: Whole Body: Fertility Index + P0: Whole Body: Gestation Index + P0: Whole Body: Male Pups per Pups Sexed + P0…): 100 mg/kg-day
- NEL (reproduction developmental, oral, gavage, M, CD1, generation: P0, P0: Blood: Calcium (CA), Blood + P0: Blood: Globulin (G) + P0: Blood: Glucose (GLU) + P0: Blood: Inorganic Phosphorous (PHOS) + P0: Blood: …): 100 mg/kg-day
- LEL [15]: 100 mg/kg-day
- NEL [15]: 25 mg/kg-day
- NEL (reproduction developmental, oral, gavage, M, CD1, generation: P0, P0: Whole Body: Fertility Index + P0: Whole Body: Percent Mating): 100 mg/kg-day
SMILES: OCCC(F)(F)C(F)(F)C(F)(F)C(F)(F)C(F)(F)C(F)(F)F [2-(Perfluorohexyl)ethanol]
- LOAEL [1]: 120 mg/kg-day
- NOAEL [1]: 25 mg/kg-day
- LEL [3]: 5 mg/kg-day
- NEL [3]: 1 mg/kg-day
- LEL [4]: 100 mg/kg-day
- NEL [4]: 25 mg/kg-day
- NEL (reproduction developmental, duration: 14 days, oral, gavage, M/F, Crl:CD-1 (ICR) BR, generation: P0, P0: Whole Body: Live Pups Born + P0: Whole Body: Male Pups per Pups Sexed + P0: Whole Body: Viability Index): 100 mg/kg-day
- NEL (reproduction developmental, duration: 42 days, multiple, F, Crl:CD-1 (ICR) BR, generation: P0, P0: Vagina: Vaginal Patency + P0: Whole Body: Body Weight Change + P0: Whole Body: Feed Consumption, Absolute): 25 mg/kg-day
- NEL (reproduction developmental, duration: 42 days, multiple, M, Crl:CD-1 (ICR) BR, generation: P0, P0: Prepuce: Preputial Separation + P0: Whole Body: Body Weight Change + P0: Whole Body: Feed Consumption, Absolute): 25 mg/kg-day
- LOAEL [5]: 120 mg/kg-day
- NOAEL [5]: 25 mg/kg-day
- LOAEL [6]: 120 mg/kg-day
- NOAEL [6]: 25 mg/kg-day
- NOAEL (reproduction developmental, duration: 54 days, oral, gavage, F, CD1, generation: P0, P0: Reproductive: Whole Body: Fertility Index + P0: Reproductive: Whole Body: Gestation Index + P0: Reproductive: Whole Body: Percent Mating): 120 mg/kg-day
- NOAEL (reproduction developmental, duration: 54 days, oral, gavage, M/F, CD1, generation: F1, F1: Reproductive: Prepuce or Vagina: Preputial Separation or Vaginal Patency): 120 mg/kg-day
- LOAEL (reproduction developmental, duration: 54 days, oral, gavage, M, CD1, generation: P0, P0: Reproductive: Whole Body: Fertility Index + P0: Reproductive: Whole Body: Percent Mating): 120 mg/kg-day
- LOAEL [8]: 5 mg/kg-day
- NOAEL [8]: 1 mg/kg-day
- LEL [9]: 5 mg/kg-day
- NEL [9]: 1 mg/kg-day
- NOAEL (reproduction developmental, duration: 109 days, oral, gavage, M, Crl:CD-1 (ICR) BR, generation: P0, P0: Reproductive: Epididymis: Epididymis Weight, Absolute + P0: Reproductive: Epididymis: Epididymis Weight, Relative + P0: Reproductive: …): 100 mg/kg-day
- NOAEL (reproduction developmental, multiple, M, Crl:CD-1 (ICR) BR, generation: F1, F1: Reproductive: Prepuce: Preputial Separation): 100 mg/kg-day
- LOAEL [10]: 5 mg/kg-day
- NOAEL [10]: 1 mg/kg-day
- LOAEL [11]: 100 mg/kg-day
- NOAEL [11]: 25 mg/kg-day
- LEL [13]: 25 mg/kg-day
- NEL [13]: 5 mg/kg-day
- LOAEL [14]: 5 mg/kg-day
- NOAEL [14]: 1 mg/kg-day
- NEL (reproduction developmental, oral, gavage, M/F, CD1, generation: F1, F1: Whole Body: Live Pups Born + F1: Whole Body: Viability Index): 100 mg/kg-day
